Where “and” joins values, the source holds several entries; their conditions need not be identical. Equal values may be shown once. Read-outs that look alike come from different tables or passages of the source.
Tests used:
CB1 = biological target: T1, CB1 (Homo sapiens, UniProt P21554); test: BioPrint panel: CB1 (h) (agonist); format: binding; conditions: 1 micromolar, read-out: percentage of inhibition of activity
T1 construct: purchased Eurofins Pharma Discovery Services (KinaseProfiler; Cerep BioPrint panel)
Excerpt: (§1) Supplement pone.0189247.s004.xlsx, sheet "Bioprint Selectivity Panel" | column: %

CRF1 = biological target: T2, CRF1 (Homo sapiens, UniProt P34998); test: BioPrint panel: CRF1 (h) (agonist); format: binding; conditions: 1 micromolar, read-out: percentage of inhibition of activity
T2 construct: purchased Eurofins Pharma Discovery Services (KinaseProfiler; Cerep BioPrint panel)
Excerpt: as §1

Y1 = biological target: T3, Y1 (Homo sapiens, UniProt P25929); test: BioPrint panel: Y1 (h) (agonist); format: binding; conditions: 1 micromolar, read-out: percentage of inhibition of activity
T3 construct: purchased Eurofins Pharma Discovery Services (KinaseProfiler; Cerep BioPrint panel)
Excerpt: as §1

PPARgamma = biological target: T4, PPARgamma (Homo sapiens, UniProt P37231); test: BioPrint panel: PPARgamma (h) (agonist); format: binding; conditions: 1 micromolar, read-out: percentage of inhibition of activity
T4 construct: purchased Eurofins Pharma Discovery Services (KinaseProfiler; Cerep BioPrint panel)
Excerpt: as §1

beta 3 = biological target: T5, beta 3 (Homo sapiens, UniProt P13945); test: BioPrint panel: beta 3 (h) (antagonist); format: binding; conditions: 1 micromolar, read-out: percentage of inhibition of activity
T5 construct: purchased Eurofins Pharma Discovery Services (KinaseProfiler; Cerep BioPrint panel)
Excerpt: as §1

PDE4D2 = biological target: T6, PDE4D2 (Homo sapiens, UniProt Q08499); test: BioPrint panel: PDE4D2 (h); format: biochemical; conditions: 1 micromolar, read-out: percentage of inhibition of activity
T6 construct: purchased Eurofins Pharma Discovery Services (KinaseProfiler; Cerep BioPrint panel)
Excerpt: as §1

[1] = system: Ca2+ channel (L, verapamil site); test: BioPrint panel: Ca2+ channel (L, verapamil site) (antagonist); format: binding; conditions: 1 micromolar
Excerpt: as §1

SKCa channel = test: BioPrint panel: SKCa channel (antagonist); format: binding; conditions: 1 micromolar
Excerpt: as §1

ERK2 (P42mapk) = biological target: T7, ERK2 (P42mapk) (Homo sapiens, UniProt P28482); test: BioPrint panel: ERK2 (h) (P42mapk); format: biochemical; conditions: 1 micromolar, read-out: percentage of inhibition of activity
T7 construct: purchased Eurofins Pharma Discovery Services (KinaseProfiler; Cerep BioPrint panel)
Excerpt: as §1

5-HT2A = biological target: T8, 5-HT2A (Homo sapiens, UniProt P28223); test: BioPrint panel: 5-HT2A (h) (agonist); format: binding; conditions: 1 micromolar, read-out: percentage of inhibition of activity
T8 construct: purchased Eurofins Pharma Discovery Services (KinaseProfiler; Cerep BioPrint panel)
Excerpt: as §1

alpha 2B = biological target: T9, alpha 2B (Homo sapiens, UniProt P18089); test: BioPrint panel: alpha 2B (h) (antagonist); format: binding; conditions: 1 micromolar, read-out: percentage of inhibition of activity
T9 construct: purchased Eurofins Pharma Discovery Services (KinaseProfiler; Cerep BioPrint panel)
Excerpt: as §1

ETA = biological target: T10, ETA (Homo sapiens, UniProt P25101); test: BioPrint panel: ETA (h) (agonist); format: binding; conditions: 1 micromolar, read-out: percentage of inhibition of activity
T10 construct: purchased Eurofins Pharma Discovery Services (KinaseProfiler; Cerep BioPrint panel)
Excerpt: as §1

5-HT1A = biological target: T11, 5-HT1A (Homo sapiens, UniProt P08908); test: BioPrint panel: 5-HT1A (h) (agonist); format: binding; conditions: 1 micromolar, read-out: percentage of inhibition of activity
T11 construct: purchased Eurofins Pharma Discovery Services (KinaseProfiler; Cerep BioPrint panel)
Excerpt: as §1

sigma (non-selective) = test: BioPrint panel: sigma (non-selective) (h) (agonist); format: binding, human; conditions: 1 micromolar
Excerpt: as §1

IP (PGI2) = biological target: T12, IP (PGI2) (Homo sapiens, UniProt P43119); test: BioPrint panel: IP (PGI2) (h) (agonist); format: binding; conditions: 1 micromolar, read-out: percentage of inhibition of activity
T12 construct: purchased Eurofins Pharma Discovery Services (KinaseProfiler; Cerep BioPrint panel)
Excerpt: as §1

5-HT transporter = biological target: T13, 5-HT transporter (Homo sapiens, UniProt P31645); test: BioPrint panel: 5-HT transporter (h) (antagonist); format: binding; conditions: 1 micromolar, read-out: percentage of inhibition of activity
T13 construct: purchased Eurofins Pharma Discovery Services (KinaseProfiler; Cerep BioPrint panel)
Excerpt: as §1

M3 = biological target: T14, M3 (Homo sapiens, UniProt P20309); test: BioPrint panel: M3 (h) (antagonist); format: binding; conditions: 1 micromolar, read-out: percentage of inhibition of activity
T14 construct: purchased Eurofins Pharma Discovery Services (KinaseProfiler; Cerep BioPrint panel)
Excerpt: as §1

PDE2A1 = PDE2A1 (Homo sapiens, UniProt O00408); test: BioPrint panel: PDE2A1 (h); format: biochemical; conditions: 1 micromolar, read-out: percentage of inhibition of activity
Excerpt: as §1

BZD (central) = test: BioPrint panel: BZD (central) (agonist); format: binding; conditions: 1 micromolar
Excerpt: as §1

CB2 = biological target: T15, CB2 (Homo sapiens, UniProt P34972); test: BioPrint panel: CB2 (h) (agonist); format: binding; conditions: 1 micromolar, read-out: percentage of inhibition of activity
T15 construct: purchased Eurofins Pharma Discovery Services (KinaseProfiler; Cerep BioPrint panel)
Excerpt: as §1

FP = biological target: T16, FP (Homo sapiens, UniProt P43088); test: BioPrint panel: FP (h) (agonist); format: binding; conditions: 1 micromolar, read-out: percentage of inhibition of activity
T16 construct: purchased Eurofins Pharma Discovery Services (KinaseProfiler; Cerep BioPrint panel)
Excerpt: as §1

MC3 = biological target: T17, MC3 (Homo sapiens, UniProt P41968); test: BioPrint panel: MC3 (h) (agonist); format: binding; conditions: 1 micromolar, read-out: percentage of inhibition of activity
T17 construct: purchased Eurofins Pharma Discovery Services (KinaseProfiler; Cerep BioPrint panel)
Excerpt: as §1

Syk = Syk (Homo sapiens, UniProt P43405); test: Enzymatic Syk kinase activity assay; format: biochemical
H3 = biological target: T18, H3 (Homo sapiens, UniProt Q9Y5N1); test: BioPrint panel: H3 (h) (agonist); format: binding; conditions: 1 micromolar, read-out: percentage of inhibition of activity
T18 construct: purchased Eurofins Pharma Discovery Services (KinaseProfiler; Cerep BioPrint panel)
Excerpt: as §1

ATPase (Na+/K+) = test: BioPrint panel: ATPase (Na+/K+); format: biochemical; conditions: 1 micromolar
Excerpt: as §1

CCK2 (CCKB) = biological target: T19, CCK2 (CCKB) (Homo sapiens, UniProt P32239); test: BioPrint panel: CCK2 (CCKB) (h) (agonist); format: binding; conditions: 1 micromolar, read-out: percentage of inhibition of activity
T19 construct: purchased Eurofins Pharma Discovery Services (KinaseProfiler; Cerep BioPrint panel)
Excerpt: as §1

GABAA1 (a1, b2, g2) = biological target: T20, GABAA1 (a1, b2, g2) (Homo sapiens, UniProt P14867+P47870); test: BioPrint panel: GABAA1 (h) (a1, b2, g2)(agonist); format: binding; conditions: 1 micromolar, read-out: percentage of inhibition of activity
T20 construct: purchased Eurofins Pharma Discovery Services (KinaseProfiler; Cerep BioPrint panel)
Excerpt: as §1

NMDA = test: BioPrint panel: NMDA (antagonist); format: binding; conditions: 1 micromolar
Excerpt: as §1

PCP = test: BioPrint panel: PCP (antagonist); format: binding; conditions: 1 micromolar
Excerpt: as §1

dopamine transporter = biological target: T21, dopamine transporter (Homo sapiens, UniProt Q01959); test: BioPrint panel: dopamine transporter (h) (antagonist); format: binding; conditions: 1 micromolar, read-out: percentage of inhibition of activity
T21 construct: purchased Eurofins Pharma Discovery Services (KinaseProfiler; Cerep BioPrint panel)
Excerpt: as §1

COX1 = biological target: T22, COX1 (Homo sapiens, UniProt P23219); test: BioPrint panel: COX1 (h); format: biochemical; conditions: 1 micromolar, read-out: percentage of inhibition of activity
T22 construct: purchased Eurofins Pharma Discovery Services (KinaseProfiler; Cerep BioPrint panel)
Excerpt: as §1

5-HT7 = biological target: T23, 5-HT7 (Homo sapiens, UniProt P34969); test: BioPrint panel: 5-HT7 (h) (agonist); format: binding; conditions: 1 micromolar, read-out: percentage of inhibition of activity
T23 construct: purchased Eurofins Pharma Discovery Services (KinaseProfiler; Cerep BioPrint panel)
Excerpt: as §1

5-HT2C = biological target: T24, 5-HT2C (Homo sapiens, UniProt P28335); test: BioPrint panel: 5-HT2C (h) (agonist); format: binding; conditions: 1 micromolar, read-out: percentage of inhibition of activity
T24 construct: purchased Eurofins Pharma Discovery Services (KinaseProfiler; Cerep BioPrint panel)
Excerpt: as §1

LAD2 cells degranulation = test: Syk dependent LAD2 cells degranulation; format: cell-based, human
Protocol: Normal human bronchial epithelial cells (NHBE) (Lonza CC-2540,) corresponding to 2 different lots derived from 2 human healthy donors, henceforth referred to as donors #1 and #2, were purchased from Lonza, who provided the cells after obtaining permission for use in research applications by informed consent. Cells were cultured in 5% CO2 at 37°C according to the manufacturer´s instructions using Lonza´s Bronchial Epithelial Basal Medium (BEBM) (CC-3171) supplemented with Lonza´s Bronchial Epithelial Cell Growth Medium bullet kit (BEGM) (CC-4175), and grown in collagen coated T-75 and T-175 tissue culture flasks as required (Becton Dickinson 356485 and 356487). Subculturing after trypsinization and amplification was performed using Lonza´s reagent pack subculture reagents (CC-5034) following the manufacturer´s instructions. CHO-K1 and THP-1 cells were purchased from the ATCC through LGC standards (ATCC CCL-61 and TIB-202 respectively). The LAD2 cell line is a human mast cell line established at the National Institutes of Health (Bethesda, Maryland, U.S.).
Quantification of enzymatic p38 activity and p38-dependent TNF production in THP-1 cells was performed as previously described. Enzymatic Syk kinase activity assays and Syk dependent LAD2 cells degranulation assays were performed as previously described. PI3Kδ dependent pAkt phosphorylation in macrophage colony-stimulating factor (M-CSF) stimulated THP-1 cells was measured as previously described.

T3 sequence (P25929 whole entry): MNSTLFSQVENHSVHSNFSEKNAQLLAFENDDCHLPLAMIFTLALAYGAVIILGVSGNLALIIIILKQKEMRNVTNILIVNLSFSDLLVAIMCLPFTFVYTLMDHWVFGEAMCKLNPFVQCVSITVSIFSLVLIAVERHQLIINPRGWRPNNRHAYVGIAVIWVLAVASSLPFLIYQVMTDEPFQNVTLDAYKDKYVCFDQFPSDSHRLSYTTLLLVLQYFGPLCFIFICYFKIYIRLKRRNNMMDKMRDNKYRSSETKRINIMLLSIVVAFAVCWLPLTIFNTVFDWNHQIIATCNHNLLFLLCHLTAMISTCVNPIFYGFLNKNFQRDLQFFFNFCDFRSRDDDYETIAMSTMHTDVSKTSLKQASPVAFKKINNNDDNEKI
PDE2A1, sequence (O00408 49-941 limits assumed): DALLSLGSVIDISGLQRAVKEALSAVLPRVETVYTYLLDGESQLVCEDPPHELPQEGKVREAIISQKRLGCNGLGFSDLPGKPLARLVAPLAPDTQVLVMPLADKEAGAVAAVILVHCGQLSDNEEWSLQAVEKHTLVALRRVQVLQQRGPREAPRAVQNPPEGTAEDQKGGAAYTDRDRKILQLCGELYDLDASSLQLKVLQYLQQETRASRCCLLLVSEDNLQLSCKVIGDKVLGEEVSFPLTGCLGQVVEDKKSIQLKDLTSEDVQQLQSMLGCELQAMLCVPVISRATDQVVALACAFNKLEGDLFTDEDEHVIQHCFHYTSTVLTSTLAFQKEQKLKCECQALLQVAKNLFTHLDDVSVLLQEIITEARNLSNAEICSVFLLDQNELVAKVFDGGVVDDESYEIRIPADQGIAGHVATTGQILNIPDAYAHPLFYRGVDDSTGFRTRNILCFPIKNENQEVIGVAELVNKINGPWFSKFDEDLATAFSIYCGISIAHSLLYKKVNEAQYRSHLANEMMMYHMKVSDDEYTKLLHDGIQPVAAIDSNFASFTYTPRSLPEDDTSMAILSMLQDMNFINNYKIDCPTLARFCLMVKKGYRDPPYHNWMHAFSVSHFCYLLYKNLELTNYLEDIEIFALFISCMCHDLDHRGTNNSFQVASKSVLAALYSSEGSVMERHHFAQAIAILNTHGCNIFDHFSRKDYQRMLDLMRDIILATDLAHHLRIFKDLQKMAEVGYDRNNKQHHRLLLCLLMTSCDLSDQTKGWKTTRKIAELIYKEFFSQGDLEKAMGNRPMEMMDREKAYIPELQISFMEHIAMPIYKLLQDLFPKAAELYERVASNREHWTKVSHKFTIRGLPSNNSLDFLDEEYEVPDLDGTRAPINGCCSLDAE
T21 sequence (Q01959 whole entry): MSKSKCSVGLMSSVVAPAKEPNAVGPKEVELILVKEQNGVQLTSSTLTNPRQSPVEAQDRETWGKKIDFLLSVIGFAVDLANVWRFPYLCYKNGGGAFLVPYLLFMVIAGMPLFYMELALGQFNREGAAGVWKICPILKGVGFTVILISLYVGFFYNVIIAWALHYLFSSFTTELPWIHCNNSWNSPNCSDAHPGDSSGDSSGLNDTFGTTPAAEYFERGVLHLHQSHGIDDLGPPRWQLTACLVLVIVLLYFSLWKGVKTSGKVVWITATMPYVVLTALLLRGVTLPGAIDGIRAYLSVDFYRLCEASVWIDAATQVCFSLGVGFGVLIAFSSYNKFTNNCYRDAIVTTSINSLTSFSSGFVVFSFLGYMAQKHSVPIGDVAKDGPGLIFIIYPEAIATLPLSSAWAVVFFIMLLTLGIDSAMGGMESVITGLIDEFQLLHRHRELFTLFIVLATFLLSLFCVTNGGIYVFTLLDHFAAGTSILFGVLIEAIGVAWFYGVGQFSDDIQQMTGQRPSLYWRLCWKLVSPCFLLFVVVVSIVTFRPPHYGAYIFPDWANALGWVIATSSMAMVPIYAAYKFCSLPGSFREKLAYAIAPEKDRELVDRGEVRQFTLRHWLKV
T4 sequence (P37231 whole entry): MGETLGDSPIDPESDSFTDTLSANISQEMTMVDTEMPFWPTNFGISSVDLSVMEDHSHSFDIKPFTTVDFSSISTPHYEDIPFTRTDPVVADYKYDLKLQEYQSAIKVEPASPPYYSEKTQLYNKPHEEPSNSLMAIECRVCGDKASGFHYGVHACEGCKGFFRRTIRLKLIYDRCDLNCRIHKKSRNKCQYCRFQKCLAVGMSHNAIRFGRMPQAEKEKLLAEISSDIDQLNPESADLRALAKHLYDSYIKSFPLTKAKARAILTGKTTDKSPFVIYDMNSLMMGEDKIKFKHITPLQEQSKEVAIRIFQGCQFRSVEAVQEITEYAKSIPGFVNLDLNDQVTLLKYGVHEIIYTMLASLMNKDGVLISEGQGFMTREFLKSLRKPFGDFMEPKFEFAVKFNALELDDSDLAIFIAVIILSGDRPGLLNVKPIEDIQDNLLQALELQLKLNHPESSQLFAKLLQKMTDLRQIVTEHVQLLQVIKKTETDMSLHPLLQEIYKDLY
T18 sequence (Q9Y5N1 whole entry): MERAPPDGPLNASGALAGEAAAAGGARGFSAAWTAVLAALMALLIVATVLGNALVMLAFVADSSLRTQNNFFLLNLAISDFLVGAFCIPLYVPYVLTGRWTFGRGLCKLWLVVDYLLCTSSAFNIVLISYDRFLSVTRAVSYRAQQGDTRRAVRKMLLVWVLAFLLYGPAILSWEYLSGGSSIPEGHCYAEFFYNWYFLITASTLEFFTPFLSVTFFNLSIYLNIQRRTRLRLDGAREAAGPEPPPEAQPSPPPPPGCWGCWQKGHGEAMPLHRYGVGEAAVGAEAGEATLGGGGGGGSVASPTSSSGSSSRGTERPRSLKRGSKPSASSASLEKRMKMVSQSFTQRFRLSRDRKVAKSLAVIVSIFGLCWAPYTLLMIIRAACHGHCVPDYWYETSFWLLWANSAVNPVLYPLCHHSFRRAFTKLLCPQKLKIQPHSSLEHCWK
T14 sequence (P20309 whole entry): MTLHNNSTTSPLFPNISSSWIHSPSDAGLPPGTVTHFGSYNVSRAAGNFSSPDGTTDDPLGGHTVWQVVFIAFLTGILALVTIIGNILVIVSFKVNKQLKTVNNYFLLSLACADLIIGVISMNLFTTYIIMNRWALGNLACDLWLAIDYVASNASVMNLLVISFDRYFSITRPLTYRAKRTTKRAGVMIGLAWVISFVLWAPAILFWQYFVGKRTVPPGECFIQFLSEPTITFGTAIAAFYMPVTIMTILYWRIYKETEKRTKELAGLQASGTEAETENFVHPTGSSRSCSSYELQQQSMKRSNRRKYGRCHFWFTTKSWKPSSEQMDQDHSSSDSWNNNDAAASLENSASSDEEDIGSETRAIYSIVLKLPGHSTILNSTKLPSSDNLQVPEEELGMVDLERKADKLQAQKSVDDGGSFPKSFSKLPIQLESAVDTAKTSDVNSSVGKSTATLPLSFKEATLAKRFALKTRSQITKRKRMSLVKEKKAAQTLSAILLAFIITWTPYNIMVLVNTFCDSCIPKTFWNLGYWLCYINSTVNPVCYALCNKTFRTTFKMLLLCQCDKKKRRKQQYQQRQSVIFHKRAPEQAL
T5 sequence (P13945 whole entry): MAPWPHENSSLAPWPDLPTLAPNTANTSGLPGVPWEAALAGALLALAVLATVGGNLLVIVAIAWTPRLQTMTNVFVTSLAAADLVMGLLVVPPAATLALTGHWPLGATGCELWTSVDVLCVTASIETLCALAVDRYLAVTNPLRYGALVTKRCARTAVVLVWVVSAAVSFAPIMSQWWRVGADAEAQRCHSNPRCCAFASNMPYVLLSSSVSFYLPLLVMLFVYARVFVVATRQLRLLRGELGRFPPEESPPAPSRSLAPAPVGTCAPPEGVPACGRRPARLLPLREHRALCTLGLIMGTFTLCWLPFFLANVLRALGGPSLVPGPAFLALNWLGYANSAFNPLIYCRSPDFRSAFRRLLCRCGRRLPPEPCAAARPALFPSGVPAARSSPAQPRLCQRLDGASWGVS
T6 sequence (Q08499 303-809 limits assumed): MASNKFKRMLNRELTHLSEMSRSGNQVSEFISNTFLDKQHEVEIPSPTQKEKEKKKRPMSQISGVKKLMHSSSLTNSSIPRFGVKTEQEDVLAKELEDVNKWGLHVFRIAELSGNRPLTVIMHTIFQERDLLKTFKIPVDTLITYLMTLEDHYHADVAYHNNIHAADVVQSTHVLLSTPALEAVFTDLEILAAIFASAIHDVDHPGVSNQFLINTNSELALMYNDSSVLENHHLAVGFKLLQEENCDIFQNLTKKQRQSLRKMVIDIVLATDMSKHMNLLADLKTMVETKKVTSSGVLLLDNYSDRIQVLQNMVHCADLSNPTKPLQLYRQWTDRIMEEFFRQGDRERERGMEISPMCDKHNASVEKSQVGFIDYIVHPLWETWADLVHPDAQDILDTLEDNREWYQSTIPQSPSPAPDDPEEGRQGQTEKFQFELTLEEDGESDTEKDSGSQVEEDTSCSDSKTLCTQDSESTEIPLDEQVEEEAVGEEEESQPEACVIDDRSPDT
T1 sequence (P21554 whole entry): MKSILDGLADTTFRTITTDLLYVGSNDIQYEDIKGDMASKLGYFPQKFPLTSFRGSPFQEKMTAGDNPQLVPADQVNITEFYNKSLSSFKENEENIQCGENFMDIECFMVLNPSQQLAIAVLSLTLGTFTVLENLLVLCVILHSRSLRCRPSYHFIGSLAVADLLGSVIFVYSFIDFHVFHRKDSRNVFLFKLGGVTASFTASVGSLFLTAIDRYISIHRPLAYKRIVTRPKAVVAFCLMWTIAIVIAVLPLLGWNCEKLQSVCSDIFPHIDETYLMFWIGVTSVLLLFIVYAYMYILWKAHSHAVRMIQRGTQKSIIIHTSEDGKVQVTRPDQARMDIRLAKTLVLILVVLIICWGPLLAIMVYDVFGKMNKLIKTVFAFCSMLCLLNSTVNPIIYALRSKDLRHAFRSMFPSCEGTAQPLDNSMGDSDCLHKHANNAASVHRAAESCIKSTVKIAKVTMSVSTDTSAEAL

Compound: Cn1cc(-c2cccc(-c3nc(C(=O)NC4C5CC6CC4CC(O)(C6)C5)c(N)nc3N)c2)cn1 (stereo not drawn) [compound 4]
- inhibition at 1 µM (CB1): 3.7%
- inhibition at 1 µM (CRF1): -37%
- inhibition at 1 µM (Y1): -9.2%
- inhibition at 1 µM (PPARgamma): 3.2%
- inhibition at 1 µM (beta 3): 8.1%
- inhibition at 1 µM (PDE4D2): 3%
- percentage of inhibition of activity [1]: 6.4%
- percentage of inhibition of activity (SKCa channel): -10.2%
- inhibition at 1 µM (ERK2 (P42mapk)): 14.3%
- inhibition at 1 µM (5-HT2A): 2.4%
- inhibition at 1 µM (alpha 2B): -6.6%
- inhibition at 1 µM (ETA): -12.5%
- inhibition at 1 µM (5-HT1A): -1.1%
- percentage of inhibition of activity (sigma (non-selective)): 5.9%
- inhibition at 1 µM (IP (PGI2)): -5.1%
- inhibition at 1 µM (5-HT transporter): -8.5%
- inhibition at 1 µM (M3): -0.3%
- inhibition at 1 µM (PDE2A1): 6.7%
- percentage of inhibition of activity (BZD (central)): -11.1%
- inhibition at 1 µM (CB2): -12.2%
- inhibition at 1 µM (FP): 4.8%
- inhibition at 1 µM (MC3): 8.8%
- IC50 (Syk; geometric mean, read-out: Activity in reference biochemical assay (IC50, μM) (95% CI) Syk): 11.8 µM
- IC50 (Syk; individual values, read-out: Biochemical activity (IC50, mM) (Syk)): 12.2 µM and 11.4 µM
- inhibition at 1 µM (H3): 7.4%
- percentage of inhibition of activity (ATPase (Na+/K+)): 0%
- inhibition at 1 µM (CCK2 (CCKB)): -3.4%
- inhibition at 1 µM (GABAA1 (a1, b2, g2)): -16%
- percentage of inhibition of activity (NMDA): -6.8%
- percentage of inhibition of activity (PCP): -2.1%
- inhibition at 1 µM (dopamine transporter): 7.5%
- inhibition at 1 µM (COX1): -4.3%
- inhibition at 1 µM (5-HT7): -4.3%
- inhibition at 1 µM (5-HT2C): -17.7%

Compound: CS(=O)(=O)N1CCN(c2ccc(Nc3ncc(C(N)=O)c(NC4CC4)n3)cc2)CC1 [compound 5]
- IC50 (LAD2 cells degranulation; Homo sapiens, LAD2, geometric mean, read-out: Activity in reference cell based assay (IC50, μM) (95% CI) LAD2 cells degranulation): 0.019 µM
- IC50 (LAD2 cells degranulation; individual values, read-out: Cellular activity (IC50, mM) LAD2 cells degranulation): 0.0341 µM and 0.015 µM and 0.0149 µM
